From patent US5356920A, “Imidazol-2-yl derivatives of substituted bicyclic compounds” (priority 1990, dated 1994)

What was measured:
[1] = target: T1, acyl CoA:cholesterol acyltransferase (ACAT-EC 2.3.1.26) (Oryctolagus cuniculus, UniProt A0A5F9CPP4); assay: ACAT inhibition in microsomes from atherosclerotic rabbit thoracic aorta (intima media); type: biochemical; details: microsomes from atherosclerotic rabbit thoracic aortas; limits p = 0.95
T1 construct: microsomal preparations from atherosclerotic rabbit thoracic aorta (intima media); from tissue; host or cells: microsomes from atherosclerotic rabbit thoracic aorta (intima media)
T1 sequence (A0A5F9CPP4 1-555): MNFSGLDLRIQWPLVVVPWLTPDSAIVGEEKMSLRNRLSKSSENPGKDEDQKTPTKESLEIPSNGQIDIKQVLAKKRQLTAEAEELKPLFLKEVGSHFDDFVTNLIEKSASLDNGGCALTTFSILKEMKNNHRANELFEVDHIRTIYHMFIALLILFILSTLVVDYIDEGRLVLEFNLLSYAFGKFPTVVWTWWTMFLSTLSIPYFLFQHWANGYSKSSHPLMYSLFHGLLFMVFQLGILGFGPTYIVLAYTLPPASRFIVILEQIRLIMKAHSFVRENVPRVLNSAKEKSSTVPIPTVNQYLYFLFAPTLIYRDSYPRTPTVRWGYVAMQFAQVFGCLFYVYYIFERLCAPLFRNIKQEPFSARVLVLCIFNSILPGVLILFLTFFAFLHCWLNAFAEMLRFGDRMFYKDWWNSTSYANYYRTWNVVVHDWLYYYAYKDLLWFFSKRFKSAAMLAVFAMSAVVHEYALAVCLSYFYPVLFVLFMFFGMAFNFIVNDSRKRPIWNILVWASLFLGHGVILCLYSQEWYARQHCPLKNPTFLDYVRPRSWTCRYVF

[2] = orientative acute toxicity (LD50), single oral administration, assessed on the seventh day, mice; details: mouse, in vivo, nine hours food deprived
Protocol: The toxicity of the compounds of the invention is negligible, therefore they can be safely used in therapy. Nine hours food deprived mice and rats were treated orally with single administration of increasing doses, then housed and normally fed. The orientative acute toxicity (LD50) was assessed on the seventh day after the treatment, for instance a LD50 greater than 800 mg/kg was found in mice for the compound coded as FCE 27116.

[3] = target: T1, acyl CoA:cholesterol acyltransferase (ACAT-EC 2.3.1.26); details: Hudson H., Day A., Atherosclerosis (1982) 45, 109; cited from earlier work

Row | Compound | IC50 [1] [nM] | LD50 at 168 h [2] [mg/kg] | inhibitory activity in vitro (rabbit arterial microsomes) [3]
1 | CCCC1Oc2ccc(OCCCC(C)(C)C(=O)OCC)cc2C=C1c1nccn1C (racemic) [FCE 25184, ethyl (+-)-5-[2-propyl-3-(1-methyl-1H-imidazol-2-yl)-2H-benzopyran-6-yl]oxy-2,2-dimethylpentanoate, reference compound] | 1060 |  | 
2 | CC(C)c1cccc(C(C)C)c1NC(=O)C(C)(C)CCCOc1ccc2c(c1)C=C(c1nccn1C)C(CCc1ccccc1)O2 (racemic) [FCE 26734, (+-)-5-[2-(2-phenylethyl)-3-(1-methyl-1H-imidazol-2-yl)-2H-1-benzopyran-6-yl]oxy-2,2-dimethyl-N-(2,6-diisopropylphenyl)pentanamide] | 85.1 |  | 
3 | CCOC(=O)C1(CCCOc2ccc3c(c2)C=C(c2nccn2C)C(CCc2ccccc2)O3)CCCC1 (racemic) [FCE 27051, ethyl (+-)-1-[3-(2-(2-phenylethyl)-3-(1-methyl-1H-imidazol-2-yl)-2H-1-benzopyran-6-yl)oxypropyl]cyclopentane-1-carboxylate] | 66.8 |  | 
4 | CC(C)c1cccc(C(C)C)c1NC(=O)C(C)(C)CCCOc1ccc2c(c1)C=C(c1nccn1C)C(CCc1ccc(F)cc1F)O2 (racemic) [FCE 27113, (+-)-5-[2-(2-(2,4-difluorophenyl)ethyl)-3-(1-methyl-1H-imidazol-2-yl)-2H-1-benzopyran-6-yl)oxy-2,2-dimethyl-N-(2,6-diisopropylphenyl)pentanamide] | 82.2 |  | 
5 | Cn1ccnc1C1=Cc2cc(OCCCC(C)(C)C(=O)NC3CCCCC3)ccc2OC1CCc1ccc(F)cc1 (racemic) [FCE 27116, (+-)-5-[2-(2-(4-fluorophenyl)ethyl)-3-(1-methyl-1H-imidazol-2-yl)-2H-1-benzopyran-6-yl]oxy-2,2-dimethyl-N-cyclohexylpentanamide] | 39.9 | > 800 | 
6 | CC(C)(Oc1ccc(CCNC(=O)c2ccc(Cl)cc2)cc1)C(=O)O [Bezafibrate] |  |  | inhibitory activity in vitro (rabbit arterial microsomes) has been already demonstrated
